Consider 7 cell lines from the supplement of paper PMC10307832.

Common to all, as to experiment: relative viability (nuclei count vs DMSO), 5 days (fraction); higher = more cells survive
Compound in the assay “IMD-0354 + Dasatinib”: O=C(Nc1cc(C(F)(F)F)cc(C(F)(F)F)c1)c1cc(Cl)ccc1O [IMD-0354] + Cc1nc(Nc2ncc(C(=O)Nc3c(C)cccc3Cl)s2)cc(N2CCN(CCO)CC2)n1 [Dasatinib] (partner 0.075 µM)
Summed up:
(§1)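 Lung cancer cell lines were seeded in 1536-well plates and dosed by pin tool the next day, with either a single drug or a fixed anchor-drug dose combined with five library-drug doses (not always all listed) spaced in √10 steps. Five days later, one step fixed the cells and stained their nuclei (final 0.05% Triton X-100, 1% formaldehyde, 1 ug/ml Hoechst), and nuclei were counted on 4× images. Relative viability is the nuclei count in treated wells divided by the count in vehicle wells, and each value is the median of duplicate plates.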

Compound in the assay “IMD-0354 + Navitoclax”: O=C(Nc1cc(C(F)(F)F)cc(C(F)(F)F)c1)c1cc(Cl)ccc1O [IMD-0354] + CC1(C)CCC(c2ccc(Cl)cc2)=C(CN2CCN(c3ccc(C(=O)NS(=O)(=O)c4ccc(N[C@H](CCN5CCOCC5)CSc5ccccc5)c(S(=O)(=O)C(F)(F)F)c4)cc3)CC2)C1 [Navitoclax] (partner 0.5 µM)
Summed up: as §1

Compound in the assay “IMD-0354 + Luminespib”: O=C(Nc1cc(C(F)(F)F)cc(C(F)(F)F)c1)c1cc(Cl)ccc1O [IMD-0354] + CCNC(=O)c1noc(-c2cc(C(C)C)c(O)cc2O)c1-c1ccc(CN2CCOCC2)cc1 [Luminespib] (partner 0.01 µM)
Summed up:
as §1

Compound in the assay “CX-5461 + Crizotinib”: Cc1cnc(CNC(=O)c2c(=O)c3ccc(N4CCCN(C)CC4)nc3n3c2sc2ccccc23)cn1 [CX-5461] + C[C@@H](Oc1cc(-c2cnn(C3CCNCC3)c2)cnc1N)c1c(Cl)ccc(F)c1Cl [Crizotinib] (partner 1 µM)
Summed up:
as §1

Regarding NCI-H3122, the relative viability with IMD-0354 + Dasatinib (first compound 0.04 µM) stood at 0.843; with IMD-0354 + Dasatinib (first compound 0.1265 µM), 0.824; in the assay with IMD-0354 + Dasatinib (first compound 0.4 µM) it was 0.321; in the assay with IMD-0354 + Dasatinib (first compound 1.265 µM), 0.286; in the assay with IMD-0354 + Dasatinib (first compound 4 µM), 0.0969; with IMD-0354 + Navitoclax (first compound 0.04 µM), 1.01. Also, the relative viability was 1.09 with IMD-0354 + Navitoclax (first compound 0.1265 µM); 0.829 with IMD-0354 + Navitoclax (first compound 0.4 µM); 0.987 with IMD-0354 + Navitoclax (first compound 1.265 µM); 0.155 with IMD-0354 + Navitoclax (first compound 4 µM); 0.0711 with IMD-0354 + Luminespib (first compound 0.04 µM); 0.103 in the assay with IMD-0354 + Luminespib (first compound 0.1265 µM). The relative viability in the assay with IMD-0354 + Luminespib (first compound 0.4 µM) was 0.0803; with IMD-0354 + Luminespib (first compound 1.265 µM), 0.0918; with IMD-0354 + Luminespib (first compound 4 µM) it was 0.0652; in the assay with CX-5461 + Crizotinib (first compound 0.01 µM), 0.299; with CX-5461 + Crizotinib (first compound 0.03162 µM), 0.267; with CX-5461 + Crizotinib (first compound 0.1 µM), 0.284. The relative viability with CX-5461 + Crizotinib (first compound 0.3162 µM) was 0.255; in the assay with CX-5461 + Crizotinib (first compound 1 µM), 0.282.

With PC-3 [JPC-3], the relative viability in the assay with IMD-0354 + Dasatinib (first compound 0.04 µM) stood at 1.12; in the assay with IMD-0354 + Dasatinib (first compound 0.1265 µM) it was 0.878; with IMD-0354 + Dasatinib (first compound 0.4 µM), 0.761; in the assay with IMD-0354 + Dasatinib (first compound 1.265 µM) it was 0.399; in the assay with IMD-0354 + Dasatinib (first compound 4 µM) it was 0.275; with IMD-0354 + Navitoclax (first compound 0.04 µM), 0.712. Further, the relative viability worked out at 0.823 in the assay with IMD-0354 + Navitoclax (first compound 0.1265 µM); 0.638 with IMD-0354 + Navitoclax (first compound 0.4 µM); 0.527 with IMD-0354 + Navitoclax (first compound 1.265 µM); 0.264 in the assay with IMD-0354 + Navitoclax (first compound 4 µM); 0.688 with IMD-0354 + Luminespib (first compound 0.04 µM); 0.53 with IMD-0354 + Luminespib (first compound 0.1265 µM). In addition, the relative viability with IMD-0354 + Luminespib (first compound 0.4 µM) amounted to 0.569; with IMD-0354 + Luminespib (first compound 1.265 µM), 0.351; with IMD-0354 + Luminespib (first compound 4 µM), 0.259; with CX-5461 + Crizotinib (first compound 0.01 µM) it was 0.987; with CX-5461 + Crizotinib (first compound 0.03162 µM), 0.996; with CX-5461 + Crizotinib (first compound 0.1 µM), 0.969. Further, the relative viability is 0.952 in the assay with CX-5461 + Crizotinib (first compound 0.3162 µM) and 0.926 with CX-5461 + Crizotinib (first compound 1 µM).

On to PC-14, for which the relative viability is 0.334 with IMD-0354 + Dasatinib (first compound 0.04 µM); 0.186 in the assay with IMD-0354 + Dasatinib (first compound 0.1265 µM); 0.406 with IMD-0354 + Dasatinib (first compound 0.4 µM); 0.0692 with IMD-0354 + Dasatinib (first compound 1.265 µM); 0.102 in the assay with IMD-0354 + Dasatinib (first compound 4 µM); 1.04 with IMD-0354 + Navitoclax (first compound 0.04 µM). The relative viability was found to be 0.937 with IMD-0354 + Navitoclax (first compound 0.1265 µM); 0.425 with IMD-0354 + Navitoclax (first compound 0.4 µM); 0.192 in the assay with IMD-0354 + Navitoclax (first compound 1.265 µM); 0.103 in the assay with IMD-0354 + Navitoclax (first compound 4 µM); 0.143 with IMD-0354 + Luminespib (first compound 0.04 µM); 0.18 with IMD-0354 + Luminespib (first compound 0.1265 µM). Also, the relative viability in the assay with IMD-0354 + Luminespib (first compound 0.4 µM) was determined as 0.152; in the assay with IMD-0354 + Luminespib (first compound 1.265 µM), 0.134; with IMD-0354 + Luminespib (first compound 4 µM), 0.109; with CX-5461 + Crizotinib (first compound 0.01 µM) it was 1.02; with CX-5461 + Crizotinib (first compound 0.03162 µM), 1.05; in the assay with CX-5461 + Crizotinib (first compound 0.1 µM) it was 0.957. The relative viability was determined as 0.863 with CX-5461 + Crizotinib (first compound 0.3162 µM) and 0.91 with CX-5461 + Crizotinib (first compound 1 µM).

For the cell line RERF-LC-KJ, the relative viability with IMD-0354 + Dasatinib (first compound 0.04 µM) was 1.08; with IMD-0354 + Dasatinib (first compound 0.1265 µM), 0.727; with IMD-0354 + Dasatinib (first compound 0.4 µM), 0.614; in the assay with IMD-0354 + Dasatinib (first compound 1.265 µM) it was 0.208; in the assay with IMD-0354 + Dasatinib (first compound 4 µM), 0.251; with IMD-0354 + Navitoclax (first compound 0.04 µM), 0.843. Moreover, the relative viability came to 1.1 with IMD-0354 + Navitoclax (first compound 0.1265 µM); 0.496 in the assay with IMD-0354 + Navitoclax (first compound 0.4 µM); 0.109 with IMD-0354 + Navitoclax (first compound 1.265 µM); 0.228 in the assay with IMD-0354 + Navitoclax (first compound 4 µM); 1.42 in the assay with IMD-0354 + Luminespib (first compound 0.04 µM); 1.26 in the assay with IMD-0354 + Luminespib (first compound 0.1265 µM). Also, the relative viability with IMD-0354 + Luminespib (first compound 0.4 µM) is 0.4; with IMD-0354 + Luminespib (first compound 1.265 µM), 0.227; with IMD-0354 + Luminespib (first compound 4 µM), 0.303; in the assay with CX-5461 + Crizotinib (first compound 0.01 µM), 0.807; in the assay with CX-5461 + Crizotinib (first compound 0.03162 µM) it was 0.562; with CX-5461 + Crizotinib (first compound 0.1 µM), 0.833. Further, the results for the relative viability in the assay with CX-5461 + Crizotinib (first compound 0.3162 µM) and with CX-5461 + Crizotinib (first compound 1 µM) were 0.774 and 0.778, respectively.

SK-LU-1: the relative viability with IMD-0354 + Dasatinib (first compound 0.04 µM) was found to be 0.173; in the assay with IMD-0354 + Dasatinib (first compound 0.1265 µM), 0.188; in the assay with IMD-0354 + Dasatinib (first compound 0.4 µM), 0.154; with IMD-0354 + Dasatinib (first compound 1.265 µM), 0.139; with IMD-0354 + Dasatinib (first compound 4 µM), 0.134; with IMD-0354 + Navitoclax (first compound 0.04 µM) it was 1.26. In addition, the relative viability with IMD-0354 + Navitoclax (first compound 0.1265 µM) was 1.17; in the assay with IMD-0354 + Navitoclax (first compound 0.4 µM) it was 0.223; with IMD-0354 + Navitoclax (first compound 1.265 µM), 0.386; in the assay with IMD-0354 + Navitoclax (first compound 4 µM), 0.126; with IMD-0354 + Luminespib (first compound 0.04 µM), 0.178; with IMD-0354 + Luminespib (first compound 0.1265 µM), 0.169. Further, the relative viability came to 0.244 with IMD-0354 + Luminespib (first compound 0.4 µM); 0.149 with IMD-0354 + Luminespib (first compound 1.265 µM); 0.169 in the assay with IMD-0354 + Luminespib (first compound 4 µM); 0.95 with CX-5461 + Crizotinib (first compound 0.01 µM); 1.01 with CX-5461 + Crizotinib (first compound 0.03162 µM); 0.837 with CX-5461 + Crizotinib (first compound 0.1 µM). In addition, the relative viability is 0.891 with CX-5461 + Crizotinib (first compound 0.3162 µM) and 0.51 with CX-5461 + Crizotinib (first compound 1 µM).

For the cell line SK-MES-1, the relative viability with IMD-0354 + Dasatinib (first compound 0.04 µM) stood at 0.437; in the assay with IMD-0354 + Dasatinib (first compound 0.1265 µM) it was 0.307; with IMD-0354 + Dasatinib (first compound 0.4 µM), 0.396; with IMD-0354 + Dasatinib (first compound 1.265 µM), 0.126; in the assay with IMD-0354 + Dasatinib (first compound 4 µM), 0.184; with IMD-0354 + Navitoclax (first compound 0.04 µM), 1.48. The relative viability with IMD-0354 + Navitoclax (first compound 0.1265 µM) is 1.12; with IMD-0354 + Navitoclax (first compound 0.4 µM), 0.649; with IMD-0354 + Navitoclax (first compound 1.265 µM) it was 0.441; with IMD-0354 + Navitoclax (first compound 4 µM), 0.314; with IMD-0354 + Luminespib (first compound 0.04 µM), 0.904; in the assay with IMD-0354 + Luminespib (first compound 0.1265 µM) it was 1.01. Also, the relative viability in the assay with IMD-0354 + Luminespib (first compound 0.4 µM) turned out to be 0.437; with IMD-0354 + Luminespib (first compound 1.265 µM) it was 0.169; in the assay with IMD-0354 + Luminespib (first compound 4 µM), 0.233; with CX-5461 + Crizotinib (first compound 0.01 µM) it was 0.969; in the assay with CX-5461 + Crizotinib (first compound 0.03162 µM) it was 1.14; with CX-5461 + Crizotinib (first compound 0.1 µM), 1.01. Besides, the relative viability with CX-5461 + Crizotinib (first compound 0.3162 µM) came to 0.958; in the assay with CX-5461 + Crizotinib (first compound 1 µM) it was 0.948.

With SW 1573, the relative viability with IMD-0354 + Dasatinib (first compound 0.04 µM) was found to be 0.763; with IMD-0354 + Dasatinib (first compound 0.1265 µM) it was 0.449; with IMD-0354 + Dasatinib (first compound 0.4 µM), 0.242; with IMD-0354 + Dasatinib (first compound 1.265 µM), 0.128; with IMD-0354 + Dasatinib (first compound 4 µM), 0.0881; with IMD-0354 + Navitoclax (first compound 0.04 µM) it was 1.15. The relative viability with IMD-0354 + Navitoclax (first compound 0.1265 µM) was 0.948; in the assay with IMD-0354 + Navitoclax (first compound 0.4 µM), 0.421; with IMD-0354 + Navitoclax (first compound 1.265 µM), 0.571; with IMD-0354 + Navitoclax (first compound 4 µM) it was 0.102; with IMD-0354 + Luminespib (first compound 0.04 µM) it was 0.189; with IMD-0354 + Luminespib (first compound 0.1265 µM) it was 0.209. Further, the relative viability stood at 0.218 in the assay with IMD-0354 + Luminespib (first compound 0.4 µM); 0.138 with IMD-0354 + Luminespib (first compound 1.265 µM); 0.127 in the assay with IMD-0354 + Luminespib (first compound 4 µM); 0.806 with CX-5461 + Crizotinib (first compound 0.01 µM); 0.817 with CX-5461 + Crizotinib (first compound 0.03162 µM); 0.889 in the assay with CX-5461 + Crizotinib (first compound 0.1 µM). The values for the relative viability with CX-5461 + Crizotinib (first compound 0.3162 µM) and with CX-5461 + Crizotinib (first compound 1 µM) were 0.633 and 0.657, respectively.
